Several values for one entry are separate records, joined by “and”; a condition that tells them apart may be missing. Identical values can stand only once.
How the values were obtained:
DYRK4_h = target: T1, DYRK4_h (Homo sapiens, UniProt Q9NR20); assay: SelectScreen kinase assay; type: biochemical; settings: KM ATP
T1 construct: purchased Life Technologies (Invitrogen) SelectScreen, Z'-LYTE / Adapta
Procedure: (§1) Syk kinase mode of inhibition studies, including parameters described in Fig 1, were conducted on the LC3000 platform by Caliper Life Sciences (Hopkinton, MA) according to standard protocols developed by the supplier. […] Non-kinase enzyme assays and GPCR, ion channel, and transporter binding assays were run by CEREP (France). Non-GLP manual patch clamp hERG assays were run by ChanTest (Cleveland, Ohio). Vivid® Assay kits (Life Technologies) were used to measure the cytochrome P450 inhibition of the compound against CYP3A, CYP2C9, CYP2C19, CYP2D6, and CYP1A2, as described.
(§2) Kinase activity was measured using either the Z’-Lyte® or the Adapta® protocols as part of the SelectScreen™ profiling service offered at Life Technologies (Grand Island, NY). For the single point measurements (Part A), CC-509 was kept constant at 3 µM while ATP concentrations [ATP] used were at the KM for ATP (KM ATP) for that specific enyzme, at 10 or 100 µM ATP (10 ATP or 100 ATP, respectively), as indicated. Values expressed as percent control (% control) relative to DMSO-only wells (uninhibited, 100%).
(§3) Kinase activity was measured using either the Z’-Lyte® or the Adapta® protocols as part of the SelectScreen™ profiling service offered at Life Technologies (Grand Island, NY). […] Values expressed as percent control (% control) relative to DMSO-only wells (uninhibited, 100%).

PKC-alpha_h = target: T2, PKC-alpha_h (Homo sapiens, UniProt P17252); assay: SelectScreen kinase assay; type: biochemical; settings: KM ATP
T2 construct: purchased Life Technologies (Invitrogen) SelectScreen, Z'-LYTE / Adapta
Procedure: as §1, §2, §3

Arg_m = target: T3, Arg_m (Mus musculus, UniProt Q4JIM5); assay: SelectScreen kinase assay; type: biochemical; settings: KM ATP
T3 construct: purchased Life Technologies (Invitrogen) SelectScreen, Z'-LYTE / Adapta
Procedure: as §1, §2, §3

GRK6_h = target: T4, GRK6_h (Homo sapiens, UniProt P43250); assay: SelectScreen kinase assay; type: biochemical; settings: KM ATP
T4 construct: purchased Life Technologies (Invitrogen) SelectScreen, Z'-LYTE / Adapta
Procedure: as §1, §2, §3

GRK2_h = target: T5, GRK2_h (Homo sapiens, UniProt P25098); assay: SelectScreen kinase assay; type: biochemical; settings: KM ATP
T5 construct: purchased Life Technologies (Invitrogen) SelectScreen, Z'-LYTE / Adapta
Procedure: as §1, §2, §3

MAP3K8_h = target: T6, MAP3K8_h (Homo sapiens, UniProt P41279); assay: SelectScreen kinase assay; type: biochemical; settings: 100 µM ATP
T6 construct: purchased Life Technologies (Invitrogen) SelectScreen, Z'-LYTE / Adapta
Procedure: as §1, §2, §3

GRK5_h = target: T7, GRK5_h (Homo sapiens, UniProt P34947); assay: SelectScreen kinase assay; type: biochemical; settings: KM ATP
T7 construct: purchased Life Technologies (Invitrogen) SelectScreen, Z'-LYTE / Adapta
Procedure: as §1, §2, §3

PKC-betaII_h = target: T8, PKC-betaII_h (Homo sapiens, UniProt P05771); assay: SelectScreen kinase assay; type: biochemical; settings: KM ATP
T8 construct: purchased Life Technologies (Invitrogen) SelectScreen, Z'-LYTE / Adapta
Procedure: as §1, §2, §3

GSG2 _h = target: T9, GSG2 _h (Homo sapiens, UniProt Q8TF76); assay: SelectScreen kinase assay; type: biochemical; settings: KM ATP
T9 construct: purchased Life Technologies (Invitrogen) SelectScreen, Z'-LYTE / Adapta
Procedure: as §1, §2, §3

SGK_h = target: T10, SGK_h (Homo sapiens, UniProt O00141); assay: SelectScreen kinase assay; type: biochemical; settings: KM ATP
T10 construct: purchased Life Technologies (Invitrogen) SelectScreen, Z'-LYTE / Adapta
Procedure: as §1, §2, §3

EEF2K_h = target: T11, EEF2K_h (Homo sapiens, UniProt O00418); assay: SelectScreen kinase assay; type: biochemical; settings: KM ATP
T11 construct: purchased Life Technologies (Invitrogen) SelectScreen, Z'-LYTE / Adapta
Procedure: as §1, §2, §3

GRK3_h = target: T12, GRK3_h (Homo sapiens, UniProt P35626); assay: SelectScreen kinase assay; type: biochemical; settings: KM ATP
T12 construct: purchased Life Technologies (Invitrogen) SelectScreen, Z'-LYTE / Adapta
Procedure: as §1, §2, §3

PASK_h = target: T13, PASK_h (Homo sapiens, UniProt Q96RG2); assay: SelectScreen kinase assay; type: biochemical; settings: KM ATP
T13 construct: purchased Life Technologies (Invitrogen) SelectScreen, Z'-LYTE / Adapta
Procedure: as §1, §2, §3

CDK1_cyclinB_h = target: T14, CDK1_cyclinB_h (Homo sapiens, UniProt P06493); assay: SelectScreen kinase assay; type: biochemical; settings: KM ATP
T14 construct: purchased Life Technologies (Invitrogen) SelectScreen, Z'-LYTE / Adapta
Procedure: as §1, §2, §3

MAPKAP-K3_h = target: T15, MAPKAP-K3_h (Homo sapiens, UniProt Q16644); assay: SelectScreen kinase assay; type: biochemical; settings: KM ATP
T15 construct: purchased Life Technologies (Invitrogen) SelectScreen, Z'-LYTE / Adapta
Procedure: as §1, §2, §3

Blk_m = target: T16, Blk_m (Mus musculus, UniProt P16277); assay: SelectScreen kinase assay; type: biochemical; settings: KM ATP
T16 construct: purchased Life Technologies (Invitrogen) SelectScreen, Z'-LYTE / Adapta
Procedure: as §1, §2, §3

PKC-zeta_h = target: T17, PKC-zeta_h (Homo sapiens, UniProt Q05513); assay: SelectScreen kinase assay; type: biochemical; settings: KM ATP
T17 construct: purchased Life Technologies (Invitrogen) SelectScreen, Z'-LYTE / Adapta
Procedure: as §1, §2, §3

PKC-betaI_h = target: T18, PKC-betaI_h (Homo sapiens, UniProt P05771); assay: SelectScreen kinase assay; type: biochemical; settings: KM ATP
T18 construct: purchased Life Technologies (Invitrogen) SelectScreen, Z'-LYTE / Adapta
Procedure: as §1, §2, §3

DYRK3_h = target: T19, DYRK3_h (Homo sapiens, UniProt O43781); assay: SelectScreen kinase assay; type: biochemical; settings: KM ATP
T19 construct: purchased Life Technologies (Invitrogen) SelectScreen, Z'-LYTE / Adapta
Procedure: as §1, §2, §3

SGK2_h = target: T20, SGK2_h (Homo sapiens, UniProt Q9HBY8); assay: SelectScreen kinase assay; type: biochemical; settings: KM ATP
T20 construct: purchased Life Technologies (Invitrogen) SelectScreen, Z'-LYTE / Adapta
Procedure: as §1, §2, §3

Jak2 = assay: JAK2 cellular selectivity assay (HEL Irf1-β-lactamase cells); type: cell-based; settings: for IC50: read-out: IC50, Jak2-dependent cellular system
Procedure: HEL Irf1-β-lactamase cells were harvested, plated in 384-well plates, and incubated with CC-509 at indicated concentrations for 16 hours in a tissue culture incubator. The cells were then treated with Live Blazer-FRET B/G Substrate solution (Life Technologies, Carlsbad, CA) for 6 hours at room temperature in the dark. Fluorescence readings at 460 nm and 530 nm were taken using the Flexstation II (Molecular Devices). Myeloid colony forming assays to assess Jak2 cellular activity were conducted at ReachBio (Seattle, WA).
For the TEL-Syk assay, the intensity values for the 700 and 800 channel were exported as text files in ActivityBase (IDBS, Guildford, UK) to derive the ratios that reflect kinase activity. For LAD2 experiments, enzyme activity values were exported as text files into ActivityBase to calculate “percent release” according to the formula: 100* supernatant OD405/ (supernatant OD405 + (pellet OD405*pellet dilution factor)). For the basophil and B-cells assays, flow cytometry data was exported from the FACS Array and processed using FloJo software package (TreeStar, Inc., Ashland, Oregon). For the JAK2 HEL and Ramos NFAT β-lactamase assays, the fluorescence values obtained at 460 nm and 530 nm were exported into ActivityBase to calculate response ratios. For the neutrophil, macrophage, KDR, and JAK1/3 assays, raw values were exported into ActivityBase to calculate percent inhibition. All IC50 calculations were generated using XLfit (IDBS, Guildford, UK) algorithm 205 within Excel. For PCA, the OD from the saline injected site was subtracted from the OD from the anti-DNP IgE injected site. Evans blue dye extravasation was expressed as mean ± SEM and % inhibition for the test article groups was normalized to the cromolyn positive control. For the CIA model paw measurements (left and right ankle diameter) were taken for each individual animal and averaged. The mean data from each group was plotted and either the AUC(day 11–18) or % inhibition on day 18 was calculated. Data is expressed as mean ± SEM of each group with n = 6–12. […]

T17 sequence (Q05513 whole entry): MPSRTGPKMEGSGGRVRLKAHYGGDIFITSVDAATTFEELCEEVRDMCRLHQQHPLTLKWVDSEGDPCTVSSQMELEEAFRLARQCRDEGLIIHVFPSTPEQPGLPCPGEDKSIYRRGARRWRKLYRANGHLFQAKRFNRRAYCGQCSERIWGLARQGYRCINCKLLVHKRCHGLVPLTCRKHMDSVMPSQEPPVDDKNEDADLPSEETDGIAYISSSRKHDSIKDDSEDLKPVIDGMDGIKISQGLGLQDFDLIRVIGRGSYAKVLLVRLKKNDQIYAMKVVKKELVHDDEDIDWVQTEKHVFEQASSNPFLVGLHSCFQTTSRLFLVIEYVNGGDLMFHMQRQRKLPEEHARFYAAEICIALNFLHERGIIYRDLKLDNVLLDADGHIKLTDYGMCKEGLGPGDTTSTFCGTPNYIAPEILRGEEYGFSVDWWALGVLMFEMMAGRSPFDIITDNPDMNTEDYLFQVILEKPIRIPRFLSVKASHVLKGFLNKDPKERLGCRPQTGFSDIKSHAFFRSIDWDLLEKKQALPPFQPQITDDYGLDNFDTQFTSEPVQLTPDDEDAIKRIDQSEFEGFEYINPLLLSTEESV
T14 sequence (P06493 whole entry): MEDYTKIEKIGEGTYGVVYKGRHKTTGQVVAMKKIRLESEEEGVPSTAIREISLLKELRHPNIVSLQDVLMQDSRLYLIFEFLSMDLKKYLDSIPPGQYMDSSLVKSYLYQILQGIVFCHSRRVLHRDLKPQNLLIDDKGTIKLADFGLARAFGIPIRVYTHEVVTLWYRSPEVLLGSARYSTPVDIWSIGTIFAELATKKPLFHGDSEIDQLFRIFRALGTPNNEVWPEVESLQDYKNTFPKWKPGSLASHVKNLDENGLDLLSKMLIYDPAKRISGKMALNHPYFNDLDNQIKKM
T14 sequence (P14635 whole entry partner): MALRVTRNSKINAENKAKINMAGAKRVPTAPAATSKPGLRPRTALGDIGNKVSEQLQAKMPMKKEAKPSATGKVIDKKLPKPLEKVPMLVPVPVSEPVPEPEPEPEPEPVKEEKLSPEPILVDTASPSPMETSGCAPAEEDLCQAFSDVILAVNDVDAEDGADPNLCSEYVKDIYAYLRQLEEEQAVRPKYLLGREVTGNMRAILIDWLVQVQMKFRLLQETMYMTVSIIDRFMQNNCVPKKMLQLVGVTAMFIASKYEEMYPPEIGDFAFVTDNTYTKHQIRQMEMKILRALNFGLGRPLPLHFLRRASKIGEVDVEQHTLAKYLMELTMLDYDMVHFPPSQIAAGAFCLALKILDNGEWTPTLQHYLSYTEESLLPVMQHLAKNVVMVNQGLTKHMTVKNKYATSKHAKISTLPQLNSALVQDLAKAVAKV
T19 sequence (O43781 whole entry): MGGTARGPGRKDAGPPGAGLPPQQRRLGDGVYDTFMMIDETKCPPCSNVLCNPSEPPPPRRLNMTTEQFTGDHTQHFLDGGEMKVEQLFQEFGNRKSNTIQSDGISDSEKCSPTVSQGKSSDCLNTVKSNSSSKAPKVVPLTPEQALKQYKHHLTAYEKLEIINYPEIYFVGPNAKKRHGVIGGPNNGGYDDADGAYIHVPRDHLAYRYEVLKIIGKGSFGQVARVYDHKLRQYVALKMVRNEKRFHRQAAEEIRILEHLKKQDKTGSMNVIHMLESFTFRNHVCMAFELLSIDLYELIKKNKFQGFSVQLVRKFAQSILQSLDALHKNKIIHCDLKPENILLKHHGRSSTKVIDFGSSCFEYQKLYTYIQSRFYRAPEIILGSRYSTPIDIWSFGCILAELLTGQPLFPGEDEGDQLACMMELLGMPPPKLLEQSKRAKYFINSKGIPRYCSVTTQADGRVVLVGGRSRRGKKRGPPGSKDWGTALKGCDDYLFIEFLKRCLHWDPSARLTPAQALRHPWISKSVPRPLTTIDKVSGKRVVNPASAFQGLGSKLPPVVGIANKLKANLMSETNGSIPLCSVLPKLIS
T5 sequence (P25098 whole entry): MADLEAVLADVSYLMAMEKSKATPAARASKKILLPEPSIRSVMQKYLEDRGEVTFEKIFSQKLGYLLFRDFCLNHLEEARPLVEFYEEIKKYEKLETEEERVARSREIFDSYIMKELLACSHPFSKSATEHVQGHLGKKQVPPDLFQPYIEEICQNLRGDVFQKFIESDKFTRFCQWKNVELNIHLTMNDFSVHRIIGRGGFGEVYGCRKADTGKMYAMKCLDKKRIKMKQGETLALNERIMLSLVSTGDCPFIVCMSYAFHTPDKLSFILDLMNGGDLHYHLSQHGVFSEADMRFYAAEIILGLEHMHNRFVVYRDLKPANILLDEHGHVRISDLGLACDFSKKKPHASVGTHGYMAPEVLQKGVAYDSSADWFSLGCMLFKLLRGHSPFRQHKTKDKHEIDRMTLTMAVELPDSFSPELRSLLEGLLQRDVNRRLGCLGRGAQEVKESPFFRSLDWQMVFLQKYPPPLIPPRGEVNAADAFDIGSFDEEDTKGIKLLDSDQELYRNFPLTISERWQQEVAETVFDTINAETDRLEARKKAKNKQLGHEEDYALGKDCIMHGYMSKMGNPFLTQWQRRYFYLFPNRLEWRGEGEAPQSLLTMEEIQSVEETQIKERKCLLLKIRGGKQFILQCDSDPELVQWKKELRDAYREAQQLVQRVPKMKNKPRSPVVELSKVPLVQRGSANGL
T13 sequence (Q96RG2 whole entry): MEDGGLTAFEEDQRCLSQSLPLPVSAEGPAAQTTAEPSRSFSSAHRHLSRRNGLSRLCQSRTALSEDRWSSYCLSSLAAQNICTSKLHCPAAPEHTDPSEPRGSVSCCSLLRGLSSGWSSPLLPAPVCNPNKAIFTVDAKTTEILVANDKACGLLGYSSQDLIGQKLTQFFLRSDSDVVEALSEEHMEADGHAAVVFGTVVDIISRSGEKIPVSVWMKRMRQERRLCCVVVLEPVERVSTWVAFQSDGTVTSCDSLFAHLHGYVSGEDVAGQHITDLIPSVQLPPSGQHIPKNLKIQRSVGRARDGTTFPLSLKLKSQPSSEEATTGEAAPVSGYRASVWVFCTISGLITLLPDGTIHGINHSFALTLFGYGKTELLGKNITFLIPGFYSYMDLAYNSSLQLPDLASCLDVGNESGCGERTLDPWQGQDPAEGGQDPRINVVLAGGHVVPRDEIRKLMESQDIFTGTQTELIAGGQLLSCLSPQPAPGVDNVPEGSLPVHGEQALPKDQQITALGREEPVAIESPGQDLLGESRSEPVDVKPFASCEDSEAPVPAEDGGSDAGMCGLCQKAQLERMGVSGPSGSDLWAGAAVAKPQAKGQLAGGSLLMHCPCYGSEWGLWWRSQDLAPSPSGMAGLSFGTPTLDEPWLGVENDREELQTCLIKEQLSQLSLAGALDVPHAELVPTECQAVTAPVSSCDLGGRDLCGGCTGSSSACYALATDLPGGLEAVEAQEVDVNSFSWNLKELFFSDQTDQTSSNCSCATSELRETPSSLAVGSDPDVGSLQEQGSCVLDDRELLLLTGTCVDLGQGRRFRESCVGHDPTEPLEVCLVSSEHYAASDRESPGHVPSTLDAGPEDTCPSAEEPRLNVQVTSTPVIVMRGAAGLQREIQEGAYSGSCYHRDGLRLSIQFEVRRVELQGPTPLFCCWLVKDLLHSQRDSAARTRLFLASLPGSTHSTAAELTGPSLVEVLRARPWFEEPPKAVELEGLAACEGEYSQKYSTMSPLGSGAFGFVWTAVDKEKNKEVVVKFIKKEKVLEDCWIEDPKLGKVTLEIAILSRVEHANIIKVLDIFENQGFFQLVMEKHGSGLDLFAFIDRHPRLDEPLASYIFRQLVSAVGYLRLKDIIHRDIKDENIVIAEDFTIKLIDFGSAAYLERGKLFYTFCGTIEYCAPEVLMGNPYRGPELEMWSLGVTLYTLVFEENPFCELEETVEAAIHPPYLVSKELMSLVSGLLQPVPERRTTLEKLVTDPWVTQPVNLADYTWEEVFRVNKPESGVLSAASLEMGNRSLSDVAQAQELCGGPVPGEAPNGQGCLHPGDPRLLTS
T18 sequence (P05771 whole entry): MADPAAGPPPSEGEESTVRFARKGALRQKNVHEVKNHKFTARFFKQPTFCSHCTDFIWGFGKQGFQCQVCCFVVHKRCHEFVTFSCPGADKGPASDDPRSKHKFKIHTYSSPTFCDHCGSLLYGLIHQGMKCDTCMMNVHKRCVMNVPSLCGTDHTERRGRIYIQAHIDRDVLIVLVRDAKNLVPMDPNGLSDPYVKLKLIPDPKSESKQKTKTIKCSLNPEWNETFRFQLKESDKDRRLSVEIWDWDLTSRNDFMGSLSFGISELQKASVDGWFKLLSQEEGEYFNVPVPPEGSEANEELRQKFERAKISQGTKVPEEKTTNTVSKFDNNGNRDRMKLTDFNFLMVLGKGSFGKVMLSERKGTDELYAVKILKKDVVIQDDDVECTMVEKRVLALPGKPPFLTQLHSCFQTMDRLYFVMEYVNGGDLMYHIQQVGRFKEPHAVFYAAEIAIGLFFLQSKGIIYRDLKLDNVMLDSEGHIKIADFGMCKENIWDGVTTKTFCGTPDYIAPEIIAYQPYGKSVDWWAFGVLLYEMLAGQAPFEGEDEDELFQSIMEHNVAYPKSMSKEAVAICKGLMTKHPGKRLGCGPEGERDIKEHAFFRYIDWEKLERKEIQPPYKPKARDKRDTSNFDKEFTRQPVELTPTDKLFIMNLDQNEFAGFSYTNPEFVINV
T20 sequence (Q9HBY8 whole entry): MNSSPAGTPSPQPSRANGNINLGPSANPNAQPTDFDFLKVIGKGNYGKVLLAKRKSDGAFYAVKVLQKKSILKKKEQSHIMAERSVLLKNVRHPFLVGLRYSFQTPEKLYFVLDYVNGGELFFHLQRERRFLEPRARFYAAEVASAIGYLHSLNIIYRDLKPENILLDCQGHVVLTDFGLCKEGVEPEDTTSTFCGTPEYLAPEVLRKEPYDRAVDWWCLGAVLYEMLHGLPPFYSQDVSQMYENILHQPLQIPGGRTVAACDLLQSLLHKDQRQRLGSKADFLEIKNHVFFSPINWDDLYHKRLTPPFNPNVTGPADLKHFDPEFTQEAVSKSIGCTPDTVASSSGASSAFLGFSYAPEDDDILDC

Structure (SMILES): COc1cc(Nc2ncc(F)c(Nc3ccc4c(n3)NC(=O)C(C)(C)O4)n2)cc(OC)c1OC [R406, reference compound]
- % control (DYRK4_h; 3 µM): 69%
- % control (PKC-alpha_h; 3 µM): 42%
- % control (Arg_m; 3 µM): 34%
- % control (GRK6_h; 3 µM): 100%
- % control (GRK2_h; 3 µM): 99%
- % control (MAP3K8_h; 3 µM): 52%
- % control (GRK5_h; 3 µM): 108%
- % control (PKC-betaII_h; 3 µM): 19%
- % control (GSG2 _h; 3 µM): 64%
- % control (SGK_h; 3 µM): 94%
- % control (EEF2K_h; 3 µM): 92%
- % control (GRK3_h; 3 µM): 103%
- % control (PASK_h; 3 µM): 104%
- % control (CDK1_cyclinB_h; 3 µM): 68%
- % control (MAPKAP-K3_h; 3 µM): 96%
- % control (Blk_m; 3 µM): 11%
- % control (PKC-zeta_h; 3 µM): 100% and 101%
- % control (PKC-betaI_h; 3 µM): 59%
- % control (DYRK3_h; 3 µM): 90%
- % control (SGK2_h; 3 µM): 92%

Structure (SMILES): c1cc(CC2CCOCC2)n2nc(Nc3ccc4c(NC5CCOCC5)n[nH]c4c3)nc2c1 [CC-509, [3-(2H-3,4,5,6-tetrahydropyran-4-ylamino)(1H-indazol-6-yl)][5-(2H-3,4,5,6-tetrahydropyran-4-ylmethyl)(2H-1,2,4-triazolo[1,5-a]pyridin-2-yl)]amine]
- remaining activity at 3 µM (DYRK4_h; read-out: % control): 97%
- remaining activity at 3 µM (PKC-alpha_h; read-out: % control): 71%
- remaining activity at 3 µM (Arg_m; read-out: % control): 31%
- remaining activity at 3 µM (GRK6_h; read-out: % control): 92%
- remaining activity at 3 µM (GRK2_h; read-out: % control): 82%
- remaining activity at 3 µM (MAP3K8_h; read-out: % control): 79%
- remaining activity at 3 µM (GRK5_h; read-out: % control): 96%
- remaining activity at 3 µM (PKC-betaII_h; read-out: % control): 43%
- remaining activity at 3 µM (GSG2 _h; read-out: % control): 100%
- remaining activity at 3 µM (SGK_h; read-out: % control): 96%
- remaining activity at 3 µM (EEF2K_h; read-out: % control): 94%
- remaining activity at 3 µM (GRK3_h; read-out: % control): 98%
- remaining activity at 3 µM (PASK_h; read-out: % control): 100%
- remaining activity at 3 µM (CDK1_cyclinB_h; read-out: % control): 82%
- remaining activity at 3 µM (MAPKAP-K3_h; read-out: % control): 88%
- remaining activity at 3 µM (Blk_m; read-out: % control): 63%
- remaining activity at 3 µM (PKC-zeta_h; read-out: % control): 86%
- remaining activity at 3 µM (PKC-betaI_h; read-out: % control): 92%
- remaining activity at 3 µM (DYRK3_h; read-out: % control): 80%
- remaining activity at 3 µM (SGK2_h; read-out: % control): 89%
- fold less potent than R406, Jak2 cellular (Jak2): 1.7 fold
- IC50 (Jak2): 5.45 ± 0.59 µM

Source: paper PMC4710522, “A Novel Triazolopyridine-Based Spleen Tyrosine Kinase Inhibitor That Arrests Joint Inflammation” (PLoS ONE, 2016)
